Source: article PMC8948257, “Limited solvation of an electron donating tryptophan stabilizes a photoinduced charge-separated state in plant (6–4) photolyase” (Scientific Reports, 2022)
Numbering of substitutions follows the chain as printed.

Legend:
Assay type in all cases: binding
Settings in all cases: 5 mM L-cysteine, 20 mM phosphate pH 7.5, 500 mM NaCl, 10% glycerol, anaerobic, >430 nm light, on ice; native bound cofactor
[1] = target: T1, At64 ((6-4) photolyase from Arabidopsis thaliana) (Arabidopsis thaliana, UniProt O48652, H382S); experiment: steady-state FAD photoreduction by UV-Vis; transient absorption
T1 construct: gene UVR3; pET-28a(+) NdeI/XhoI, His-tagged, expressed in E. coli C41(DE3)/pLysS; TALON and heparin purification
T1 sequence (O48652 20-556 H382S): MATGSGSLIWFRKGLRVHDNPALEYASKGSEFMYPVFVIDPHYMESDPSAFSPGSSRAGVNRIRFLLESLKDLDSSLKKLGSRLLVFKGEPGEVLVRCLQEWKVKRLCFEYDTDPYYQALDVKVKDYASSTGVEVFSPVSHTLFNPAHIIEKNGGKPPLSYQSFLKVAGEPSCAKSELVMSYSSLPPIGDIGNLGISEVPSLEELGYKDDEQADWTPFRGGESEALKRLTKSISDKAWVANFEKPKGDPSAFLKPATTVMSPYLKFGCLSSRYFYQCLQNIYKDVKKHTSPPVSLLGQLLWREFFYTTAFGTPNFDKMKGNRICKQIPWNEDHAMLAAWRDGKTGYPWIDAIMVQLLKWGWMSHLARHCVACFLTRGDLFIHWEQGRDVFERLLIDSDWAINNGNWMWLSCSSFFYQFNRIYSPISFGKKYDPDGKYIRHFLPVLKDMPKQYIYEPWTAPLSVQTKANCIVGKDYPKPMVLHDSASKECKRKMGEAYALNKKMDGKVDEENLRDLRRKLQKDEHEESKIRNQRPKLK

[2] = target: T2, At64 ((6-4) photolyase from Arabidopsis thaliana) (Arabidopsis thaliana, UniProt O48652, H382D); experiment: steady-state FAD photoreduction by UV-Vis
T2 construct: gene UVR3; pET-28a(+) NdeI/XhoI, His-tagged, expressed in E. coli C41(DE3)/pLysS; TALON and heparin purification
T2 sequence (O48652 20-556 H382D): T1 sequence (O48652 20-556 H382S) with S363D

[3] = target: T3, Xl64 (Xenopus laevis (6-4) PL) (Xenopus laevis, UniProt Q9I910, W370F/S372H, form not given); experiment: steady-state FAD photoreduction by UV-Vis
T3 construct: gene Xl64phr; pET28a(+), expressed in E. coli; only the W370F/S372H mutant made here
T3 sequence (Q9I910 1-526 W370F/S372H): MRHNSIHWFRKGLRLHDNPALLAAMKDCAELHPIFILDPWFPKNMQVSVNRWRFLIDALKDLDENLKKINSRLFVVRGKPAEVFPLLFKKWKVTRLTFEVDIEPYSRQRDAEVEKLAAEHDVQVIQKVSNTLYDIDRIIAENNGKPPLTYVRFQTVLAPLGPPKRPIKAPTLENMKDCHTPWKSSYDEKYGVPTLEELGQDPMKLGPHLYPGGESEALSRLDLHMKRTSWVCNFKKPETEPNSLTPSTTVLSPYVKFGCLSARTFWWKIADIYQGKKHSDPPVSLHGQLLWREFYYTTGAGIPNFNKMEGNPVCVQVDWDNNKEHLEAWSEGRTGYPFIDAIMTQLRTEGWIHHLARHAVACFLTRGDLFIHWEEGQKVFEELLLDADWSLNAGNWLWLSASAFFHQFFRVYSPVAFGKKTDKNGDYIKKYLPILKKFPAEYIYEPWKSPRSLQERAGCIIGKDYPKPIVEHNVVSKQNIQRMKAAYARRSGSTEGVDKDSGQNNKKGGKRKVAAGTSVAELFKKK

[4] = target: T4, At64 ((6-4) photolyase from Arabidopsis thaliana) (Arabidopsis thaliana, UniProt O48652, H382Y); experiment: steady-state FAD photoreduction by UV-Vis
T4 construct: gene UVR3; pET-28a(+) NdeI/XhoI, His-tagged, expressed in E. coli C41(DE3)/pLysS; TALON and heparin purification
T4 sequence (O48652 20-556 H382Y): T1 sequence (O48652 20-556 H382S) with S363Y

[5] = target: T5, At64 ((6-4) photolyase from Arabidopsis thaliana) (Arabidopsis thaliana, UniProt O48652, H382V); experiment: steady-state FAD photoreduction by UV-Vis
T5 construct: gene UVR3; pET-28a(+) NdeI/XhoI, His-tagged, expressed in E. coli C41(DE3)/pLysS; TALON and heparin purification
T5 sequence (O48652 20-556 H382V): T1 sequence (O48652 20-556 H382S) with S363V

[6] = target: T6, At64 ((6-4) photolyase from Arabidopsis thaliana) (Arabidopsis thaliana, UniProt O48652, H382N); experiment: steady-state FAD photoreduction by UV-Vis
T6 construct: gene UVR3; pET-28a(+) NdeI/XhoI, His-tagged, expressed in E. coli C41(DE3)/pLysS; TALON and heparin purification
T6 sequence (O48652 20-556 H382N): T1 sequence (O48652 20-556 H382S) with S363N

## Cc1cc2nc3c(=O)[nH]c(=O)nc-3n(C[C@H](O)[C@H](O)[C@H](O)COP(=O)(O)OP(=O)(O)OC[C@H]3O[C@@H](n4cnc5c(N)ncnc54)[C@H](O)[C@@H]3O)c2cc1C [flavin adenine dinucleotide]
[1]
  steady-state FAD photoreduction by UV-Vis; transient absorption: FAD photoreduction in At64-H382S occurred with a half-life
[2]
  steady-state FAD photoreduction by UV-Vis: we successfully purified the H382D, H382N, H382V and H382Y mutants of At64
[3]
  steady-state FAD photoreduction by UV-Vis: the W370F/S372H double mutant of Xl64 (Xl64-W370F/S372H)
[4]
  steady-state FAD photoreduction by UV-Vis: we successfully purified the H382D, H382N, H382V and H382Y mutants of At64
[5]
  steady-state FAD photoreduction by UV-Vis: we successfully purified the H382D, H382N, H382V and H382Y mutants of At64
[6]
  steady-state FAD photoreduction by UV-Vis: we successfully purified the H382D, H382N, H382V and H382Y mutants of At64
